Results taken from patent US4942234A, “Isothiazolone 1,1-dioxide derivatives with psychotropic activity” (American Home Products Corporation, priority 1989, dated 1990).
Structures can show the parent of a compound that is named as a salt.

Key:
[1] = system: apomorphine-induced stereotyped behavior (in vivo dopamine receptor blocking activity); conditions: i.p., mice; inactivity taken as low potential for extrapyramidal side effects
[2] = system: conditioned avoidance response; assay: conditioned avoidance (shelf-jump response) test; assay type: in vivo, male CD rats; conditions: rats; for Active at: i.p.
Method: A test designed to determine the potential antipsychotic activity of the compounds of the invention is the conditioned avoidance (shelf-jump response) test.
This test is carried out as follows:
Male CD rats (Charles River) maintained at approximately 400-450 gm body weight are used. […] A moveable wall, controlled by a motor, determines whether the rat has access to the shelf at any time during the experiment. The experimental chamber also contains a house light and sonalert. A steel grid floor in the main chamber is wired for presentation of electric shock. Each trial consists of a fifteen-second warning tone (conditioned stimulus), continuing for an additional fifteen seconds accompanied by electric shock (unconditioned stimulus). A response (jumping onto the exposed shelf of the upper chamber) occurring during the initial fifteen-second warning tone is considered an avoidance response, while a response occurring during shock delivery is considered an escape response. Trials are presented on a fixed interval schedule of one minute. The session consists of thirty-six trials. Animals are run twice weekly with control sessions always preceding a drug run, and with at least one day intervening. Compounds are administered i.p. or p.o. at appropriate pre-treatment times to a minimum of five rats at each dose level over a range of doses.
The following experimental parameters are recorded by computer: (1) the number of avoidance responses, (2) the number of escape responses, and (3) the number of trials in which no response occurred.
Response counts are summed over all subjects at a given dose. […] This number is expressed as a percentage of the total trials. Control performance is arbitrarily assigned a value of 100% for avoidance responding and the dose calculated to produce a 50% block in avoidance responding (AB50) is obtained from a dose-effect regression line fitted by the method of least squares. Potential antipsychotic compounds suppress avoidance responding and increase escape responding.

[3] = molecular target: limbic D-2 dopamine receptor (Rattus norvegicus, UniProt P61169); assay: inhibition of limbic D-2 dopamine receptor binding (3H-spiroperidol); conditions: read-out: Limbic D-2 Binding Inhibition, % inhibition at 1 μM
limbic D-2 dopamine receptor, sequence (P61169 whole entry): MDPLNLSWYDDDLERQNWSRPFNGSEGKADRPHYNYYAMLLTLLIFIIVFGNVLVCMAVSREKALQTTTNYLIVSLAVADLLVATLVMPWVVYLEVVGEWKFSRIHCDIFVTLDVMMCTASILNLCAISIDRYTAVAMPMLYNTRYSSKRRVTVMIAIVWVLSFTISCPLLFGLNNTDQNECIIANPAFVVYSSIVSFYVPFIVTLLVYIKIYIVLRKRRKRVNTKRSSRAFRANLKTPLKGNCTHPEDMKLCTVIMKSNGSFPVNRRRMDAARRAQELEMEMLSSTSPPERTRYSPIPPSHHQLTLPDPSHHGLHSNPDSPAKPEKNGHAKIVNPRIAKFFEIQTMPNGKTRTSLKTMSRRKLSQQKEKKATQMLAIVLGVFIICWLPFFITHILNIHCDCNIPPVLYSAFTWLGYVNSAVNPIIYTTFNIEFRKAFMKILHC
Method: This in vitro assay measures the ability of the compounds tested to bind to the dopamine receptor sites.
The assay is carried out as follows:
Several rats are decapitated and the brains are rapidly removed. Limbic brain tissue (nucleus accumbens, septal area, olfactory tubercle) is dissected and homogenized on ice in 9 volumes of buffer (50 mM Tris-HCl, 120 mM NaCl, 5 mM KCl, 1 mM CaCl2, 1 mM MgCl2, 0.1% L-ascorbic acid, 10 μM pargyline HCl, pH 7.1) using a Polytron homogenizer at setting 5 for three 15-sec bursts. The homogenate is then diluted 4-fold with buffer and centrifuged at 30,000×g for 20 min, and the supernatant is discarded. The pellet is resuspended in the same volume of buffer and recentrifuged as before, again discarding the supernatant. This pellet is then resuspended in the same volume of buffer used in the homogenization, and the protein content of this preparation is assayed by the Lowry method. The homogenate is stored frozen at -70° C. until use.
At the end of the incubation, 3 ml of cold 50 mM Tris-HCl, pH 7.7, are added to each tube, and the contents are rapidly vacuum-filtered through Whatman GF/B glass-fiber filters. The filters are then rapidly washed 3 times with 3 ml of the same buffer, placed in scintillation vials, and shaken for 15 min with 10 ml of Hydrofluor (National Diagnostics) scintillation cocktail. The vials are then counted in a Packard 460CD scintillation counter.
Specific binding is defined as total binding less binding in the presence of 1 μM (+)butaclamol. Binding in the presence of various concentrations of test drug is expressed as a per cent of specific binding when no drug is present.

| SMILES | activity in apomorphine-induced stereotyped behavior assay [1] | ED50 ([2]; Rattus norvegicus, ip, read-out: AB50 (50% block in avoidance responding)) [mg/kg] | inhibition at 1 µM [3] [%] | Active at [2] [mg/kg] |
| --- | --- | --- | --- | --- |
| O=C1CC2(CCCC2)CC(=O)N1CCCCN1CCN(c2ncccn2)CC1 [Buspirone, 8-[4-[4-(2-pyrimidinyl)-1-piperazinyl]butyl]-8-azaspiro[4.5]decane-7,9-dione, reference compound] | inactive | 9.44 |  |  |
| Cl.O=C1C2C3CCC(O3)C2S(=O)(=O)N1CCCCc1ccncc1 (stereo not drawn) [Example 1, Hexahydro-2-[4-(4-pyridinyl)butyl]-4,7-epoxy-1,2-benzisothiazol-3(2H)-one 1,1-dioxide, hydrochloride] |  |  | 3 | 40 |
| O=C1C2C3CCC(O3)C2S(=O)(=O)N1CCCCC1CCN(c2ncccn2)CC1 (stereo not drawn) [Example 2, Hexahydro-2-[4-[1-(2-pyrimidinyl)-4-piperidinyl]butyl]-4,7-epoxy-1,2-benzisothiazol-3(2H)-one 1,1-dioxide, hydrochloride, monohydrate] |  |  | 6 |  |
| Cl.O=C1C2C3C=CC(C3)C2S(=O)(=O)N1CCCCc1ccncc1 (stereo not drawn) [Example 3, 3a,4,7,7a-Tetrahydro-2-[4-(4-pyridinyl)butyl]-4,7-methano-1,2-benzisothiazol-3(2H)-one 1,1-dioxide, hydrochloride] |  |  | 1 | 40 |
| O=C1C2C3CCC(O3)C2S(=O)(=O)N1CCCCC1CCN(c2cncc(Cl)n2)CC1 (stereo not drawn) [Example 4, Hexahydro-2-[4-[1-(6-chloro-2-pyrazinyl)-4-piperidinyl]butyl]-4,7-epoxy-1,2-benzisothiazol-3(2H)-one 1,1-dioxide, hydrochloride, hydrate] |  |  | 7 |  |
| CC1=C(C)CC2C(C1)C(=O)N(CCCCc1ccncc1)S2(=O)=O.Cl (stereo not drawn) [Example 5, 3a,4,7,7a-Tetrahydro-5,6-dimethyl-2-[4-(4-pyridinyl)butyl]-1,2-benzisothiazol-3(2H)-one 1,1-dioxide, hydrochloride] |  |  | 56 | 40 |
| O=C1C2C3CCC(O3)C2S(=O)(=O)N1CCCCC1CCN(c2cnccn2)CC1 (stereo not drawn) [Example 6, Hexahydro-2-[4-[1-(2-pyrazinyl)-4-piperidinyl]butyl]-4,7-epoxy-1,2-benzisothiazol-3(2H)-one 1,1-dioxide, hydrochloride, hemihydrate] |  |  | 6 |  |
| O=c1c2ccccc2[s+]([O-])n1CCCCc1ccncc1 (stereo not drawn) [Example 7, 2-[4-(4-Pyridinyl)butyl]-1,2-benzisothiazol-3(2H)-one 1-oxide, hydrochloride] |  |  | 14 |  |
